Earlier results in patent US20210353631A1, “1,4-Benzoxazines for the Treatment of Cancers and Other Neurodegenerative Diseases” (Neugeneron LLC, priority 2020, published 2021).

Columns and labels:
p38 MAPK = conditions: kinome profiling studies; cited from earlier work
[1] = biological target: cyclin-dependent kinases (CDKs); conditions: kinome profiling studies; cited from earlier work
mouse model of HD = conditions: cited from earlier work
panel of 20 kinases = conditions: 500 nM; previous analyses; cited from earlier work
[2] = tested on: cell culture models of neurodegeneration; conditions: cited from earlier work
fly model of AD = conditions: widely-used fly model of AD; cited from earlier work
GSK3β = GSK3β (Homo sapiens, UniProt P49841); conditions: kinome profiling studies; cited from earlier work
Sequence of GSK3β (P49841 whole entry): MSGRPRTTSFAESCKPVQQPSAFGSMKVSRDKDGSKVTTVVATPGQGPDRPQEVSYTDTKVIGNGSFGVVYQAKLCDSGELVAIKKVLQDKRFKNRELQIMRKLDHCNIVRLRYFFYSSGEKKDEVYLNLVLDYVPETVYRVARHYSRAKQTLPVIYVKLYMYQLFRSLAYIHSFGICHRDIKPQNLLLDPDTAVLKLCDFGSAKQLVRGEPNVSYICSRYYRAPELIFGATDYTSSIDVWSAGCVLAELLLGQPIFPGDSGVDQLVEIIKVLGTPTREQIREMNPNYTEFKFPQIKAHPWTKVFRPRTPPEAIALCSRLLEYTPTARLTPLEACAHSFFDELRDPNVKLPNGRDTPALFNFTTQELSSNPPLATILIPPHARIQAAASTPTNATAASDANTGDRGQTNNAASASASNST

Question: What does the source list for `Nc1ccc2c(c1)NC(=O)/C(=C/c1cc(Br)c(O)c(Br)c1)O2` [HSB-13]?
Answer: kinase inhibition (in words) (p38 MAPK): most inhibited; kinase inhibition (in words) [1]: most inhibited; behavioral performance (mouse model of HD): improved behavioral performance; neurodegeneration (mouse model of HD): prevented neurodegeneration; kinases inhibited out of a panel of 20 kinases (panel of 20 kinases): 3; protection against neuronal loss [2]: protective; protection (fly model of AD): protective; kinase inhibition (in words) (GSK3β): most inhibited
